How the values were obtained:
[1] = tested on: Human monocyte derived dendritic cells; assay: Human monocyte derived dendritic cell cytokine release, IL-10; type: cell-based; conditions: 18 h
Excerpt: (§1) Following stimulation through the toll-like receptors (TLR) DCs express and release proinflammatory cytokines and chemokines and may induce activation and proliferation of naïve T cells. The binding of an EP2 agonist to the DC EP receptor inhibits TLR4 ligand (LPS) stimulated Interleukin 12 (IL-12) release. […] Therefore an EP2 agonist skews the CD4 T cell differentiation away from the Th- lineage.
IL-10 initially designated cytokine synthesis inhibitory factor (CSIF), was originally identified as a product of Th-2 clones that suppressed the production of cytokines by Th-1 clones responding to stimulation by antigen in the presence of antigen-presenting cells. IL-10 is a dimer composed of two identical 160 amino acid subunits. Enzyme linked immuno sorbant assays (ELISA) based on antibodies specific to IL-10 are commercially available. Standards and samples are pipetted into the wells of a microplate. An antibody specific to human IL-10 is added to the wells. A substrate is added to the wells and color develops in proportion to the amount of IL-10 bound. The intensity of the color is measured.
(§2) Human monocyte derived dendritic cells are isolated from human donors using a Ficoll density gradient and residual erythrocytes removed by selective lysis. CD14 MicroBeads are used for separation of human cells based on the expression of the CD14 antigen. The dendritic cells are cultured at approximately 1.5 x 10^6 cells per ml in RPMI 1640 with fetal bovine serum, 200 ng/ml GM-CSF (Leukine) and 10 ng/ml IL-4. The cells grow-for a period of 3 days and then the media is changed. 10ng/ml LPS is used to activate the cells. 1µM of substance (EP2 agonist) and 1µM of PGE2 are added during the LPS stimulation. Cells are incubated for approximately 18 hr at 37C. IL-12 and II-10 released during activation is measured by ELISA.

[2] = tested on: Human monocyte derived dendritic cells; assay: Inhibition of human monocyte derived dendritic cell cytokine release, IL-12; type: cell-based; conditions: 18 h
Excerpt: as §1
IL-12 is a 75 kDa glycoprotein heterodimer (p70) composed of two genetically unrelated subunits linked by a disulfide bond. Enzyme linked immuno sorbant assays (ELISA) based on antibodies specific to IL-12 p70 are commercially available. Standards and samples are pipetted into the wells of a microplate. An antibody specific to human IL-12 is added to the wells. A substrate is added to the wells and color develops in proportion to the amount of IL-12 bound. The intensity of the color is measured.
as §2

[3] = Donor 1, read-out: % inhibition below untreated, LPS- stimulated control
[4] = Donor 2, read-out: % inhibition below untreated, LPS- stimulated control
[5] = Donor 3, read-out: % inhibition below untreated, LPS- stimulated control

How did the inhibition at 1 µM [1, 3] turn out when `CCCCC[C@H](O)/C=C/[C@H]1[C@H](O)CC(=O)[C@@H]1C/C=C\CCCC(=O)O` [PGE2, prostaglandin E2] was run?
Its inhibition at 1 µM is 103%.

And the inhibition at 1 µM [1, 4]?
The inhibition at 1 µM was 134%.

What about the inhibition at 1 µM [1, 5] of the same molecule?
The inhibition at 1 µM was 107%.

What about the inhibition at 1 µM [2, 3] of the same molecule?
Its inhibition at 1 µM is 78%.

What about the inhibition at 1 µM [2, 4] of the same molecule?
Its inhibition at 1 µM is 44%.

And the inhibition at 1 µM [2, 5]?
The inhibition at 1 µM was 84%.

What about the inhibition at 1 µM ([2]; Donor 4, read-out: % inhibition below untreated, LPS- stimulated control) of the same molecule?
The inhibition at 1 µM was 29%.
